Source: patent publication US20020132276A1, “FACS method for detecton of GPIIb/IIIa inhibitor dependent activators in plasma samples” (priority 1999, published 2002)

Legend:
[1] = test system: platelet CD62; experiment: Detection of ADP as a GPIIb/IIIa DDPAS by DDPASFCA; type: cell-based, human; conditions: for + compound Med F12: + Compound A 1 μM; for no compound Med F12: no Compound A; for Delta Med F12: with minus without Compound A 1 μM
Description: Adenosine diphosphate (ADP) was evaluated as a possible DDPAS as follows: Compound A (final concentration 1 μM) or vehicle was added to 25 μL of freshly prepared PRP in wells of a 96-well microtiter plate. Another set of wells received vehicle. After 10 minutes, 2.5 μL of from each well was transferred to microtiter wells containing only 20 μL of anti-CD62-PE. After incubation for 30 minutes, samples were analyzed by flow cytometry as in Example 1.

[2] = test system: platelet CD62; experiment: DDPASFCA in alternative microtiter plates (Costar Serocluster #3897 versus #3898); type: cell-based, human; conditions: with minus without Compound A 200 nM
Description: ADP and DPC38 were used as sources of DDPASs. 2 μL of citrated PRP (DPC3) was added to either Costar Serocluster® 96 well V-bottom microtiterplates (#3897) or #3898 microtiter plates (Costar Serocluster®) (rated as “hydrophilic” in nature by the manufacturer). Platelets were then treated with and without Compound A (200 nM) with the indicated concentrations of ADP. Similarly, DDPAS positive PRP (DPC38) was added to wells of both types of plates and treated with and without Compound A (200 nM). Reactions were incubated without shaking for 120 minutes. After this time, 20 μL of phycoerythrin conjugated anti-CD62 (anti-CD62-PE, Bectin Dickinson) was added. After 30 minutes the samples were diluted with 150 μL flow buffer and bound anti-CD62-PE measured as described in Example 1.
Delta SC=Delta Fluorescence for Costar Serocluster microtiter plates
Delta H=Delta Fluorescence for H3898 microtiter plates

[3] = platelet donor DPC3, ADP 100 uM

`Nc1ncnc2c1ncn2[C@@H]1O[C@H](COP(=O)(O)OP(=O)(O)O)[C@@H](O)[C@H]1O` [ADP, Adenosine diphosphate] was tested, and the “+ compound Med F12” value ([1]; ADP 0.4 μM final) was 20, the “no compound Med F12” value ([1]; ADP 0.4 μM final) was 14 and the “Delta Med F12” value ([1]; ADP 0.4 μM final) was 5. The “+ compound Med F12” value ([1]; ADP 2 μM final) was 89, the “no compound Med F12” value ([1]; ADP 2 μM final) was 48 and the “Delta Med F12” value ([1]; ADP 2 μM final) was 40. For the same compound, the “+ compound Med F12” value ([1]; ADP 10 μM final) was 208, the “no compound Med F12” value ([1]; ADP 10 μM final, PRP, 10 minutes) was 126 and the “Delta Med F12” value ([1]; ADP 10 μM final) was 82. For the same compound, the “Delta CS (Delta Fluorescence for Costar Serocluster microtiter plates)” value ([2]; platelet donor DPC3, ADP 10 uM) was 89, the “Delta H (Delta Fluorescence for H3898 microtiter plates)” value ([2]; platelet donor DPC3, ADP 10 uM) was 157 and the “Delta CS (Delta Fluorescence for Costar Serocluster microtiter plates)” value [2, 3] was 82. For the same compound, the “Delta H (Delta Fluorescence for H3898 microtiter plates)” value [2, 3] was 168.
